Experimental findings from publication PMC10882622, “Cytosolic Delivery of Bioactive Cyclic Peptide Cargo by Spontaneous Membrane Translocating Peptides” (ACS Omega, 2024) are described below.

Structures are written as SMILES. Where “and” joins values, the source holds several entries; their conditions need not be identical. Identical values can stand only once. Numbered stars: 1 amine (or outer) side, 2 acyl side, 3 side chain; on linkers, the order of the positions; unused ones are H or OH. Bridge positions count the residues as written; N and C are the ends. Square brackets hold non-standard residues; d marks the D form. Peptide text beside a SMILES is read from it. I, II: the chains in the order shown. Trp(2-yl) = O=C([C@H](Cc1c([*:3])[nH]c2ccccc12)N[*:1])[*:2]; X1 = O=C1CC([*:1])C(=O)N1CC1CCC(C(=O)[*:2])CC1; Leu(4R-OH,5-OH) = C[C@](O)(CO)C[C@H](N)C(=O)O; cisHyp = O=C(O)[C@@H]1C[C@H](O)CN1

The subject of data set [1] is HT1080 cells. In words: wound-healing scratch (cell migration) assay. Further details: cell migration: dose or concentration left out as unconfirmed. The class given is cell-based, human. Here is the method:
A total of 30,000 HT1080 cells were seeded into each well of a 96-well plate in complete media and incubated for 24 h. Cells were washed with DPBS and incubated in serum-free media (SFM) for the next 48 h. Treatment with TP1/2/3-S-Ph, cytochalasin D, or media control, containing DMSO equal to treatment (% v/v), was done for four h at 37 °C. Cells were washed three times with DPBS and then scratched with 10 μL pipet tips on a multichannel pipettor. Evaluation of area closure was performed by phase contrast microscopic imaging of each well at 4× magnification, hourly, for 24 h with the Biotek Cytation 5 cell imaging reader and the BioSpa 8 automated incubator. Only the linear portion of the time course, up to 8 h, was used for analysis. For each condition studied, the scratch assay was performed in at least 6 biologically independent experiments, and each experiment consisted of 2–3 technical replicates.
ImageJ was used to trace the perimeter of each scratch. The gap area (GA) of each scratch was generated with ImageJ via batch processing with a lower threshold of 0 and an upper threshold of 60. The gap area for treatment groups was averaged and relativized as follows: [drawing 1]
Mean relative GA was plotted over time, and the absolute value of the slope from 1 to 8 h for each treatment was determined. Lastly, slopes were normalized against SFM controls.
We performed 4 h incubation in the presence of peptide chimeras and then washed the cells with PBS three times prior to conducting the scratch-closing measurements. This approach enabled us to assay only for rapid and nonreversible delivery of phalloidin cargo to the cytosol of cells by the peptides. The control compound cytochalasin D needed to be maintained at the noted concentration throughout the entire incubation time because, unlike the peptides, it is readily washed out of cells and has no effect if incubated for 4 h and washed away.
Figure 4 Example scratch assay. For this assay, a total of 30,000 HT1080 cells were seeded into each well of a 96-well cell culture plate in complete media and incubated for 24 h. Cells were washed with DPBS and incubated in serum-free media (SFM) for the next 48 h. Treatment with serum-free media, cytochalasin D, or peptide was done for 4 h at 37 °C. Cells were washed three times with DPBS and then scratched with 10 μL pipet tips on a multichannel pipettor. Cytochalasin D was replaced at the intended concentration, but the peptide was not. Evaluation of wound area was performed by phase contrast microscopic imaging of each well at 4× magnification with a BioTek Cytation 5 cell imaging reader and the BioSpa 8 automated incubator. Here, we show example images from a typical scratch assay taken 0, 1, 3, and 6 h after scratching a channel in the middle of the surface. Red lines show the edge of the wound identified by ImageJ and were used to calculate the total wound area from each image.
Migration rates were normalized to that of the NT/SFM group, which was always the fastest closing group. Each experiment was repeated in at least 6 biologically independent experiments, and each biologically independent experiment was repeated in 2–3 technical replicates.

In data set [2] the target is T1, pyrene-labeled actin (Oryctolagus cuniculus, UniProt P68135).
T1 construct: purchased Cytoskeleton, Inc
As to the kind of experiment: in vitro actin depolymerization assay (pyrene excimer fluorescence, Cytoskeleton kit). It is filed as biochemical. Conditions: polymerized pyrene-actin, 0–50 μM, rates by linear regression, normalized to buffer-only control, averaged; read-out: EC50 for inhibition of actin depolymerization (initial depolymerization rate vs concentration). As for the experimental part: An actin polymerization biochemistry kit (Cytoskeleton, Inc.) was used to assay the bioactivity of the phalloidin conjugates. All experiments were performed in a 96-well format and read on a fluorescent plate reader (Biotek Synergy II). Actin-pyrene monomers formed filamentous actin by using the supplied polymerization buffer, which caused pyrene excimer fluorescence (excitation 365 nm and emission 407 nm). Serial dilutions of phalloidin or TP2-SMCC-Ph were added to the filamentous actin-pyrene as well as a no peptide control. A supplied depolymerization buffer was then added to samples, and loss of fluorescence was monitored on the plate reader as a function of time. […] Calculated rates are normalized to the buffer-only controls.
The 7-position of natural phalloidin is a 4,5-dihydroxy leucine residue. […] Pyrene excimer fluorescence is measured such that depolymerization will drive a decrease in intensity. Polymerized actin, with added phalloidin or TP2-SMCC-Ph, is triggered to depolymerize at time zero, and the rate of excimer decrease is measured.
Figure 3 Control experiments. […] Pyrene excimer fluorescence was excited at 390 nm and monitored at 460 nm over 1 h. (B) Initial depolymerization rates from experiments such as the one shown in Panel A were measured by linear regression and averaged. […] Right axis: washed human red blood cells were incubated for 1 h, and hemoglobin release was measured.

The test system of data set [3] is human red blood cells. As to the kind of experiment: hemolysis, hemoglobin release. Conditions: washed human red blood cells, incubated 1 h. It is filed as cell-based. As for the experimental part: (§1) Figure 3 Control experiments. (A) Example in vitro actin depolymerization assay. Depolymerization of pyrene-labeled actin from Cytoskeleton, Inc. was initiated at time zero in the presence of 0–50 μM TP2-S-Ph conjugate. Pyrene excimer fluorescence was excited at 390 nm and monitored at 460 nm over 1 h. (B) Initial depolymerization rates from experiments such as the one shown in Panel A were measured by linear regression and averaged. We show depolymerization rates versus concentration for phalloidin and for the D-TP2-S-Ph conjugate. EC50 values are ∼3 μM for phalloidin and ∼6 μM for D-TP2-S-Ph. (C) Cytotoxicity and hemolysis caused by TP2, phalloidin, and the TP2-S-Ph chimera. Left axis: HeLa cells were incubated with the indicated concentration of compound for 4 h, and cell viability was measured by Alamar Blue fluorescence after 72 h. Right axis: washed human red blood cells were incubated for 1 h, and hemoglobin release was measured.
(§2) To further test for indirect cytotoxicity, we incubated HeLa cells with TP2-S-Ph, TP2 alone, and free phalloidin for 72 h, Figure 3C, and measured cell viability using Alamar Blue.

Data set [4] concerns HeLa cells. As to the kind of experiment: cytotoxicity, cell viability by Alamar Blue. The class given is cell-based, human. Conditions: Alamar Blue fluorescence after 72 h. As for the experimental part: Validated HeLa human […] cancer cells and HT1080 human epithelial fibrosarcoma cells were obtained from ATCC and were used at a low passage number without modification. All cells were maintained in T75 flasks in an incubator at 37 °C, 5% CO2 in complete media: DMEM containing 10% (%v/v) FBS, glucose, sodium pyruvate, L-glutamine, nonessential amino acids, and antibiotics. Serum-free media (SFM) was prepared in the same fashion as complete media but lacked FBS. Cells were maintained daily with two DPBS washes and replacement of complete media. When ≥90% confluent, cells were passaged using trypsin and seeded into another T75 flask and/or 96-well plates.
as §1, §2
(In general: The colour change of resazurin is a common sign of viable cells or microbes.)

Where [5] appears, read: 100 nM continuous, HT1080, serum-free media.

Consider `CC[C@@H](C)[C@@H](NC(=O)[C@@H](CC(C)C)NC(=O)[C@H]1CCCN1)C(=O)N[C@H](Cc1ccc(O)cc1)C(=O)N[C@H](CC(C)C)C(=O)N[C@H](CCCNC(=N)N)C(=O)N[C@H](CC(C)C)C(=O)N[C@H](CC(C)C)C(=O)N[C@H](CCCNC(=N)N)C(=O)NCC(=O)N[C@H](CCC(N)=O)C(=O)N[C@H](Cc1c[nH]c2ccccc12)C(=O)N[C@H](CSC1CC(=O)N(CC2CCC(C(=O)NCCCC[C@@H]3NC(=O)[C@@H]4Cc5c([nH]c6ccccc56)SC[C@H](NC(=O)[C@@H]([C@H](C)O)NC(=O)[C@H](C)NC3=O)C(=O)N3C[C@@H](O)C[C@H]3C(=O)N[C@@H](C)C(=O)N4)CC2)C1=O)C(N)=O` (stereo partly drawn) [TP2-S-Ph] (I: H-[dP][dL][dI][dY][dL][dR][dL][dL][dR]G[dQ][dW][dC]-NH2 / II: cyclo([cisHyp]A[Trp(2-yl)]KA[dT]C); linker I:13-II:4 via X1; thioether II:3-II:7), for which the “size of effect on cell migration compared with cytochalasin D control” value in data set [1] (25 μM, applied for 4 h then washed off, control 100 nM continuous CD) was “at least as large as the CD control”. In data set [1] (at 25, 12.5, 6.3, and 3.1 μM, 4 h incubation then washed, slope 1–8 h, at least 6 independent experiments), the “effect on migration (mean wound closure rate) compared to no treatment, one-way ANOVA” value was “significant effects”. In data set [2], the EC50 was < 5 µM and ~6 µM. Moreover, in data set [3], the “hemolysis of red blood cells” value was “no hemolytic activity”. In addition, the “toxicity to HeLa cells (cell viability)” value in data set [4] (0–25 μM concentration range) is listed as “Neither the conjugated TP2 nor TP2 alone showed any toxicity”; in data set [4] (at 50 μM) it was “the conjugate did not”.

Turning to `C=C1[C@@H](C)[C@H]2[C@H](Cc3ccccc3)NC(=O)[C@]23[C@H](OC(C)=O)/C=C/[C@@](C)(O)C(=O)[C@@H](C)C/C=C/[C@H]3[C@@H]1O` [cytochalasin D], in data set [1] (setting [5]), the “cell migration over the first 6 h” value is “little to no migration” and the “inhibition of cell movement” value was “inhibited cell movement completely”. The “effect on cell migration after wash-out” value in data set [1] (incubated for 4 h and washed away) is recorded as “no effect”. Further, the cell migration result in data set [1] (treatment, continuous, HT1080) is given as “some migration”.

On to `C[C@@H]1NC(=O)[C@H](C[C@@](C)(O)CO)NC(=O)[C@@H]2Cc3c([nH]c4ccccc34)SC[C@H](NC(=O)[C@@H]([C@H](C)O)NC1=O)C(=O)N1C[C@@H](O)C[C@H]1C(=O)N[C@@H](C)C(=O)N2` [phalloidin] (cyclo(A[dT]C[cisHyp]A[Trp(2-yl)][Leu(4R-OH,5-OH)]); thioether 3-6 (inferred); ring closure inferred), for which, in data set [2], the EC50 is < 5 µM and ~3 µM. The “cytotoxic effects on HeLa cells (cell viability)” value in data set [4] (up to 1 mM) is listed as “no cytotoxic effects”.
